Data: patent US12344610B2, “APOL1 inhibitors and methods of use” (Maze Therapeutics, Inc., priority 2022, dated 2025)
Where two headings read alike, the source gives them in different places.

How the values were obtained:
Type in all cases: cell-based
[1] = tested on: HEK293 clonal cell line overexpressing APOL1 G1; assay: APOL1 G1 HEK293 cell rescue assay (Example B3); settings: geometric mean of at least 2 runs, † = single run, ¥ = concentration at 50% rescue estimated (no sigmoidal curve)
In short: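 Rescue of cell death caused by APOL1 G1 overexpression was measured in a clonal HEK293 line. Compounds were tested in duplicate on one plate, and EC50s were geometric means across at least two runs on different days. Some values are estimated 50%-rescue concentrations where curve fitting failed.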

[2] = tested on: Trypanosoma brucei Lister 427 VSG221 with APOL1 G1 recombinant protein; assay: APOL1 G1 trypanosome cell rescue assay (Example B5); settings: geometric mean of at least 2 assay runs, † = single assay run
In short: (§1)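 Luminescent ATP read-out (CellTiter-Glo) of trypanosome viability after 20 h at 37° C. Bloodstream T. brucei Lister 427 VSG221, 250/well in modified HMI-9, were exposed to recombinant mature APOL1 (aa 28-398) from a 2 μg/mL addition, plus compound in 11-point 2-fold series.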

[3] = tested on: Trypanosoma brucei Lister 427 VSG221 with APOL1 G2 recombinant protein; assay: APOL1 G2 trypanosome cell rescue assay (Example B5); settings: geometric mean of at least 2 assay runs, † = single assay run
In short: as §1

[4] = Homo sapiens, HEK293, HEK293 clonal line overexpressing APOL1 G1
[5] = Trypanosoma brucei, 20 h, read-out: APOL1 G1 Trypanosome Rescue EC50, Trypanosoma brucei Lister 427 VSG221 with APOL1 G1 recombinant protein, 20 hours, CellTiter-Glo
[6] = Trypanosoma brucei, 20 h, read-out: APOL1 G2 Trypanosome Rescue EC50, Trypanosoma brucei Lister 427 VSG221 with APOL1 G2 recombinant protein, 20 hours, CellTiter-Glo
[7] = HEK293 clonal line overexpressing APOL1 G1

CS(=O)(=O)C1CN(c2ncc(OCCN3CCC4(CC3)C(=O)Nc3ccc(Cl)cc34)cn2)C1 [Compound 302, 5-chloro-1′-(2-{[2-(3-methanesulfonylazetidin-1-yl)pyrimidin-5-yl]oxy}ethyl)-1,2-dihydrospiro[indole-3,4′-piperidin]-2-one]
EC50 [1, 4]: 236 nM
EC50 [2, 5]: 498 nM
EC50 [3, 6]: 142 nM

CS(=O)(=O)c1ccc(OCCN2CCC3(CC2)C(=O)N(CCO)c2ccc(Br)cc23)cc1 [Compound 24, 5-bromo-1-(2-hydroxyethyl)-1′-[2-(4-methanesulfonylphenoxy)ethyl]-1,2-dihydrospiro[indole-3,4′-piperidin]-2-one]
EC50 [1, 4]: 609 nM
EC50 [2, 5]: 759 nM
EC50 [3, 6]: 163 nM

CN(C)C(=O)C1(c2ccc(OCCN3CCC4(CC3)C(=O)Nc3ccc(C#N)cc34)cc2)COC1 [Compound 254, 3-[4-(2-{5-cyano-2-oxo-1,2-dihydrospiro[indole-3,4′-piperidin]-1′-yl}ethoxy)phenyl]-N,N-dimethyloxetane-3-carboxamide]
EC50 [1, 4]: 2040 nM
EC50 [2, 5]: 951 nM
EC50 [3, 6]: 252 nM

CS(=O)(=O)c1ccc(OCCN2CCC3(CC2)C(=O)N(CCO)c2ccc(Cl)cc23)cc1 [Compound 18, 5-chloro-1-(2-hydroxyethyl)-1′-[2-(4-methanesulfonylphenoxy)ethyl]-1,2-dihydrospiro[indole-3,4′-piperidin]-2-one]
EC50 [1, 4]: 663 nM
EC50 [2, 5]: 1540 nM
EC50 [3, 6]: 234 nM

CN(C)C(=O)C1(S(=O)(=O)c2ccc(OCCN3CCC4(CC3)C(=O)Nc3ccc(Cl)cc34)cc2)CC1 [Compound 227, 1-[4-(2-{5-chloro-2-oxo-1,2-dihydrospiro[indole-3,4′-piperidin]-1′-yl}ethoxy)benzenesulfonyl]-N,N-dimethylcyclopropane-1-carboxamide]
EC50 [1, 4]: 210 nM
EC50 [2, 5]: 248 nM
EC50 [3, 6]: 61.6 nM

CNC(=O)N1CCc2cc(OCCN3CCC4(CC3)C(=O)Nc3ccc(Cl)cc34)ccc2C1 [Compound 245, 6-(2-{5-chloro-2-oxo-1,2-dihydrospiro[indole-3,4′-piperidin]-1′-yl}ethoxy)-N-methyl-1,2,3,4-tetrahydroisoquinoline-2-carboxamide]
EC50 [1, 4]: 301 nM
EC50 [2, 5]: 379 nM
EC50 [3, 6]: 102 nM

O=C1Nc2ccc(Cl)cc2C12CCN(CCOc1ccc(S(=O)(=O)C3(CO)CC3)nc1)CC2 [Compound 248, 5-chloro-1′-{2-[(6-{[1-(hydroxymethyl)cyclopropyl]sulfonyl}pyridin-3-yl)oxy]ethyl}-1,2-dihydrospiro[indole-3,4′-piperidin]-2-one]
EC50 [1, 4]: 219 nM
EC50 [2, 5]: 126 nM
EC50 [3, 6]: 37.9 nM

CS(=O)(=O)C1(c2ccc(OCCN3CCC4(CC3)C(=O)Nc3ccc(C(F)F)cc34)cc2)CC(O)C1 (single isomer, unassigned) [Compound 281, 5-(difluoromethyl)-1′-(2-{4-[(cis) or (trans)-3-hydroxy-1-methanesulfonylcyclobutyl]phenoxy}ethyl)-1,2-dihydrospiro[indole-3,4′-piperidin]-2-one]
EC50 [1, 7]: 164 nM
EC50 ([2]; read-out: APOL1 G1 Trypanosome Rescue EC50, Trypanosoma brucei Lister 427 VSG221 with APOL1 G1 recombinant protein, 20 hours, CellTiter-Glo): 101 nM
EC50 ([3]; read-out: APOL1 G2 Trypanosome Rescue EC50, Trypanosoma brucei Lister 427 VSG221 with APOL1 G2 recombinant protein, 20 hours, CellTiter-Glo): 28.1 nM

CS(=O)(=O)c1ccc(OCCN2CCC3(CC2)C(=O)Nc2ccc(Cl)cc23)cc1C(O)CO (stereo not drawn) [Compound 216, 5-chloro-1′-{2-[3-(1,2-dihydroxyethyl)-4-methanesulfonylphenoxy]ethyl}-1,2-dihydrospiro[indole-3,4′-piperidin]-2-one]
EC50 [1, 4]: ~1000 nM
EC50 [2, 5]: 912 nM
EC50 [3, 6]: 231 nM

CNC(=O)C1(S(=O)(=O)c2ccc(OCCN3CCC4(CC3)C(=O)Nc3ccc(Cl)cc34)cc2)CC1 [Compound 226, 1-[4-(2-{5-chloro-2-oxo-1,2-dihydrospiro[indole-3,4′-piperidin]-1′-yl}ethoxy)benzenesulfonyl]-N-methylcyclopropane-1-carboxamide]
EC50 [1, 4]: 138 nM
EC50 [2, 5]: 112 nM
EC50 [3, 6]: 36 nM

O=C(c1ccc(OCCN2CCC3(CC2)C(=O)Nc2ccc(Cl)cc23)cc1F)N1CC2(C1)CS(=O)(=O)C2 [Compound 239, 6-[4-(2-{5-chloro-2-oxo-1,2-dihydrospiro[indole-3,4′-piperidin]-1′-yl}ethoxy)-2-fluorobenzoyl]-2λ^6-thia-6-azaspiro[3.3]heptane-2,2-dione]
EC50 [1, 4]: 191 nM
EC50 [2, 5]: 48.8 nM
EC50 [3, 6]: 14.8 nM

O=C1CCc2cc(OCCN3CCC4(CC3)C(=O)Nc3ccc(Cl)cc34)cnc2N1CCO [Compound 192, 5-chloro-1′-(2-{[8-(2-hydroxyethyl)-7-oxo-5,6,7,8-tetrahydro-1,8-naphthyridin-3-yl]oxy}ethyl)-1,2-dihydrospiro[indole-3,4′-piperidin]-2-one]
EC50 [1, 4]: 126 nM
EC50 [2, 5]: 142 nM
EC50 [3, 6]: 49.1 nM

CN1C(=O)C2(CCN(CCOc3ccc(C(=O)N4CCS(=O)(=O)CC4)c(C(F)(F)F)c3)CC2)c2cc(C#N)ccc21 [Compound 261, 1′-{2-[4-(1,1-dioxo-1λ^6-thiomorpholine-4-carbonyl)-3-(trifluoromethyl)phenoxy]ethyl}-1-methyl-2-oxo-1,2-dihydrospiro[indole-3,4′-piperidine]-5-carbonitrile]
EC50 [1, 4]: 167 nM
EC50 [2, 5]: 100 nM
EC50 [3, 6]: 29.6 nM

O=C(c1ccc(OCCN2CCC3(CC2)C(=O)Nc2ccc(Cl)cc23)cc1F)N1CCC1 [Compound 234, 1′-{2-[4-(azetidine-1-carbonyl)-3-fluorophenoxy]ethyl}-5-chloro-1,2-dihydrospiro[indole-3,4′-piperidin]-2-one]
EC50 [1, 4]: 233 nM
EC50 [2, 5]: 475 nM
EC50 [3, 6]: 146 nM

CN1C(=O)CCc2cc(OCCN3CCC4(CC3)C(=O)Nc3ccc(Cl)cc34)ccc21 [Compound 27, 5-chloro-1′-[2-[(1-methyl-2-oxo-3,4-dihydroquinolin-6-yl)oxy]ethyl]spiro[indoline-3,4′-piperidine]-2-one]
EC50 [1, 4]: 186 nM
EC50 [2, 5]: 269 nM
EC50 [3, 6]: 66.3 nM

CS(=O)(=O)C1(c2ccc(OCCN3CCC4(CC3)C(=O)Nc3ccc(Cl)cc34)cc2)COC1 [Compound 195, 5-chloro-1′-{2-[4-(3-methanesulfonyloxetan-3-yl)phenoxy]ethyl}-1,2-dihydrospiro[indole-3,4′-piperidin]-2-one]
EC50 [1, 4]: 72 nM
EC50 [2, 5]: 74.4 nM
EC50 [3, 6]: 19.8 nM

C[C@]1(O)C[C@@H](N2C(=O)OCc3cc(OCCN4CCC5(CC4)C(=O)Nc4ccc(Cl)cc45)cnc32)C1 [Compound 289, 5-chloro-1′-[2-({2-oxo-1-[(cis)-3-hydroxy-3-methylcyclobutyl]-1H,2H,4H-pyrido[2,3-d][1,3]oxazin-6-yl]oxy)ethyl]-1,2-dihydrospiro[indole-3,4′-piperidin]-2-one]
EC50 [1, 4]: 50.6 nM
EC50 [2, 5]: 51.9 nM
EC50 [3, 6]: 15.7 nM

CS(=O)(=O)c1ccc(OCCN2CCCC3(CC2)C(=O)Nc2ccccc23)cc1 (stereo not drawn) [Compound 26, 1-(2-(4-(methylsulfonyl)phenoxy)ethyl)spiro[azepane-4,3′-indolin]-2′-one]
EC50 [1, 4]: ~10900 nM
EC50 [2, 5]: > 4000 nM
EC50 [3, 6]: > 4000 nM

Cc1n[nH]cc1-c1ccc(OCCN2CCC3(CC2)C(=O)Nc2ccc(Cl)cc23)cc1 [Compound 244, 5-chloro-1′-{2-[4-(5-methyl-1H-pyrazol-4-yl)phenoxy]ethyl}-1,2-dihydrospiro[indole-3,4′-piperidin]-2-one]
EC50 [1, 4]: 189 nM
EC50 [2, 5]: 151 nM
EC50 [3, 6]: 49.3 nM

CC(COc1ccc2c(c1)CCC(=O)N2C)N1CCC2(CC1)C(=O)Nc1ccc(C#N)cc12 (single isomer, unassigned) [Compound 203, (S) or (R)-1′-{1-[(1-methyl-2-oxo-1,2,3,4-tetrahydroquinolin-6-yl)oxy]propan-2-yl}-2-oxo-1,2-dihydrospiro[indole-3,4′-piperidine]-5-carbonitrile]
EC50 [1, 7]: 457 nM
EC50 [2, 5]: 583 nM
EC50 [3, 6]: 227 nM

CC(COc1ccc(C2(S(C)(=O)=O)COC2)cc1)N1CCC2(CC1)C(=O)Nc1ccc(C#N)cc12 (single isomer, unassigned) [Compound 263, (S) or (R)-1′-{1-[4-(3-methanesulfonyloxetan-3-yl)phenoxy]propan-2-yl}-2-oxo-1,2-dihydrospiro[indole-3,4′-piperidine]-5-carbonitrile]
EC50 [1, 7]: 462 nM
EC50 [2, 5]: 320 nM
EC50 [3, 6]: 95.3 nM

CS(=O)(=O)c1ccc(OCCN2CCC3(CC2)C(=O)N(CCO)c2ccc(Cl)cc23)cc1C(F)F [Compound 265, 5-chloro-1′-{2-[3-(difluoromethyl)-4-methanesulfonylphenoxy]ethyl}-1-(2-hydroxyethyl)-1,2-dihydrospiro[indole-3,4′-piperidin]-2-one]
EC50 [1, 4]: 132 nM
EC50 [2, 5]: 105 nM
EC50 [3, 6]: 23.1 nM
